Source: US20110269790A1, “NOVEL THIENOPYRIDINES AS PHARMACOLOGICALLY ACTIVE AGENTS” (priority 2009, published 2011)

What was measured:
Wistar rats [1] = assay: Cotton pellet granuloma (sub acute model); assay type: in vivo, rat; settings: BN compounds 100 mg/kg, Indomethacin 5 mg/kg, daily for 7 days
Protocol: Wistar rats weighing between 180-220 gms were anaesthetized with ether. The skin at their back was shaved and disinfected with 70% alcohol according to D'Arcy et al., 1960). An incision was made in the lumbar region. Using a blunt forceps subcutaneous tunnel was formed and a sterilized cotton pellet was placed on both sides in scapular region. Standard 20 mg cotton pellets was weighed and sterilized for the study. Rats were grouped into 5 groups of 6 animals each. […] On 8th day rats in all groups were sacrificed with anesthetic ether. Pellets were removed and kept overnight for incubation at 37° C. Then pellets were dried at 60° C. until they reach constant weight. The wet weight of pellets was also recorded after sacrificing. The average weights of pellets of control group and other treated groups were calculated. The percent change of granuloma weight was calculated for all the test groups comparing with control group.

TNF-α [2] = assay: In vitro TNF-α estimation in LPS treated RAW 264.7 macrophages (ELISA); assay type: cell-based, mouse; settings: 50 μg/ml, 25 μg/ml, 12.5 μg/ml with LPS 10 μg/ml, 6 hrs
Protocol: Cell Culture and Treatment: The RAW 264.7 (mouse macrophages, national center for cellular sciences) cells were grown in plastic T-25 culture flask in Dulbeccos modified eagles medium (DMEM) without phenol red supplemented with 10% heat activated serum (heating at 57° C. for 30 minutes, 100 μg per ml penicillin, 200 μg per ml streptomycin, 2 mmol L-glutamine, 1% antibiotic/Anti mycotic solution (GIBCO/SRL) under 5% co2 with 85% relative humidity at 37° C. After 2-3 days cells were removed from the culture flask by tripsinizing the cells with Trypsin EDTA solution. Cell count and viability was performed using a standard Trypan blue dye exclusion method. The cell concentration was adjusted to 1×10^5 cells per ml in each well with the same media in the 12 well plates. After 24 hrs incubation the media was removed from each well replaced with a fresh one containing different concentrations (50 μg, 25 μg, 12.5 μg) of the synthetic compounds BN-4, BN-14 and BN-16 along with 10 μg/ml LPS, where as normal control (PBS) and positive controls (Dexa, Roli) LPS (10 μg/ml), were added. 200 μl of media from each well was collected at 6 hrs for the estimation of TNF-α and after 24 hrs for Nitric Oxide respectively. The adherent cells, which remained after removing the media was subjected to […] for determining the cytotoxicity of compounds at selected concentrations
Measurement of TNF-α: TNF-α was assayed by ELISA kit supplied by R&D systems. A volume of 100 μl of 0.8 μg per ml, goat anti mouse TNF-a in PBS was coated and incubated overnight at room temperature. Plates were washed 3 times with PBS/0.05% Tween 20 and blocked by the addition of 1% BSA in PBS at room temperature for 2 hrs. Plates were washed 3 times again with same buffer and 100 μl of samples and standards (Recombinant mouse TNF-α with 1% BSA in PBS) of different concentrations were added in triplicates and incubated for 2 hrs at RT. After washing 100 μl of goat anti mouse TNF-α conjugated with HRP were added and incubated for 2 hrs at RT. Then 100 μl of TMB substrate ([…] with H2O2) was added to all wells. After 20 min stop solution was added to all the wells, and measured the optical density at 450 nm. TNF-α concentration was calculated from standard curve by regression analysis.

Wistar rats [3] = assay: Freund's complete adjuvant (FCA) induced arthritis; assay type: in vivo, rat; settings: BN compounds 100 mg/kg; for % Of inhibition, 5th Day / % Of inhibition, 12th Day / % Of inhibition, 18th Day / Body weight index, 21st DAY / Paw volume, 5th Day / Paw volume, 12th Day / Paw volume, 18th Day / Paw volume, 21st Day: indomethacin 2.5 mg/kg daily; for Body weight index, 21st DAY / Body weight index, 1st DAY: FCA study; for Paw volume, 5th Day / Paw volume, 12th Day / Paw volume, 18th Day / Paw volume, 21st Day: in mL (unit assumed); for Body weight index, 1st DAY: indomethacin 2.5 mg/kg; for Total WBC count: termination day, FCA model, Indomethacin 2.5 mg/kg
Protocol: Induction of Arthritis: Arthritis was induced by injecting Freund's complete adjuvant (FCA. Required quantity of FCA was weighed and suspension made with paraffin oil (DIFCO Laboratories) and administered at dose of 0.5 mg/rat in subplantar region of the right hind paw. After 7 days, a booster injection was given to all animals to hind paws.
Experimental Design Animals were divided into 6 groups of 6 rats each and were designated as:
(§1) Group I—Normal Control; Group II—Arthritic control; Group III—Arthritic rats administered with Synthetic compound BN-4; Group IV—arthritic rats administered with compound BN-14; Group V—arthritic rats administered with BN-16; Group VI—arthritic rats administered with standard drug indomethacin. Administration of test compounds and indomethacin started on the same day of adjuvant injection at the dose of 100 and 2.5 mg/kg respectively. The test and indomethacin doses continued up to 21 days in FCA induced model and 24 days in collagen induced model. During the study period the paw volumes were measured on 5th, 12th, 18th and 21 st days and the weight of the animals was also recorded at different time intervals. At each time point the percentage of inhibition of paw volume was calculated with reference to mean paw volume of control group In FCA model, animals were sacrificed on 21st day by cervical dislocation. Before sacrificing the animals, blood was collected and used for estimation of total leukocyte count, TNF-α and IL-1β.
Clinical Assessment of Adjuvant arthritis: Rats were examined for visual appearance of arthritis and the lesion of erythema and inflammation of periarticular tissues on 14th day, 18th day and on 21st day. Arthritis scoring scale as follows:
2=Mild swelling and erythema of the limb 3=Gross swelling and erythema of the limb 4=Gross deformity and inability to use the limb
The arthritis score of each rat was the sum of the scores of both hind limbs and maximum score was being 8 for each rat.

IL-1β = IL-1β in rat paw tissue and serum, FCA model (ELISA); assay type: in vivo; design: % Inhibition (IL-1 Beta) / Percentage of Inhibition (IL-1 Beta): concentration or dose not given beside the values; settings: for % Inhibition (IL-1 Beta): FCA model
Protocol: as §1
In FCA induced study paw tissues were collected on termination day and estimated TNF-α and IL-1β levels for all the groups by ELISA method.
On termination day blood samples were collected and serum was used for the estimation of Both TNF-α and IL-1β levels in FCA and Collagen induced studies. Both the parameters were determined using ELISA kits. TNF-α could not be determined as their expression is very less in serum samples of the rats in the two models studied, where as IL-1β expression in serum was good. Daily treatment of synthetic compounds by oral administration was effective in reducing the serum IL-1β levels (P<0.01) when compared with arthritic control group.

TNF-α [4] = assay: TNF-α in paw tissue, collagen induced arthritis; assay type: in vivo, rat; settings: collagen induced study, day 24, 100 mg/kg/day
Source text: It is believed that these proinflammatory cytokines help to propagate a local or systemic inflammatory process, and to induce biosynthesis and secretion of metalloproteinases (MMPs) and osteoclasts that critically contribute to degradation of extracellular matrix and erosion of bone respectively (Burger et al., 1998; Gravallese and Goldring, 2000; Smolen and Steiner, 2003).

[5] = paw tissue, termination day (21st day), BN compounds 100 mg/kg, indomethacin 2.5 mg/kg
[6] = rat serum, termination day, FCA induced arthritis

Row | Compound | % Inhibition (granuloma dry weight) (Wistar rats [1]) [%] | % Inhibition (granuloma wet weight) (Wistar rats [1]) [%] | Granuloma Dry Weight (Wistar rats [1]) [mg] | Granuloma Wet Weight (Wistar rats [1]) [mg] | Inhibition of TNF-a production (TNF-α [2]) | % Of inhibition, 5th Day (Wistar rats [3]) [%] | % Of inhibition, 12th Day (Wistar rats [3]) [%] | % Of inhibition, 18th Day (Wistar rats [3]) [%] | Body weight index, 21st DAY (Wistar rats [3]) | Paw volume, 5th Day (Wistar rats [3]) | Paw volume, 12th Day (Wistar rats [3]) | Paw volume, 18th Day (Wistar rats [3]) | Paw volume, 21st Day (Wistar rats [3]) | Body weight index, 1st DAY (Wistar rats [3]) | Total WBC count (Wistar rats [3]) | IL-1 Beta concentration (IL-1β; [5]) | % Inhibition (IL-1 Beta) (IL-1β; paw tissue, termination day) [%] | IL-1 Beta concentration (IL-1β; [6]) | Percentage of Inhibition (IL-1 Beta) (IL-1β; [6]) [%] | Inhibition of TNF-α in paw tissues (TNF-α [4])
1 | Nc1c2c(nc3sc4c(c13)CCC4)CCCCC2 [BN-16, 1,2,3,6,7,8,9,10-Octahydrocyclohepta[b]cyclopenta[4,5]thieno[3,2-e]pyridine-11-amine] | 27.70 ± 1.82 | 23.09 ± 1.59 | 84.16 ± 2.11 | 365.08 ± 6.39 | good inhibition | 23.95 ± 4.49 | 39.11 ± 1.68 | 37.53 ± 09.04 | 206.38 ± 4.76 | 1.81 ± 0.11 | 1.51 ± 0.10 | 1.64 ± 0.13 | 1.59 ± 0.09 | 157.85 ± 2.08 | 17.3±1.63 | 68.87 ± 21.1 ng/gm of tissue | 40.51 ± 9.56 | 17.0 ± 4.50 Pg/ml of tissue | 32.48 ± 6.22 | moderate inhibition (p<0.05)
2 | COc1ccc2c(c1)c(CC(=O)O)c(C)n2C(=O)c1ccc(Cl)cc1 [Indomethacin, reference compound] | 32.78 ± 1.88 | 26.93 ± 2.24 | 78.25 ± 2.19 | 338.01 ± 10.38 |  | 37.25 ± 2.36 | 45.43 ± 3.56 | 45.80 ± 6.09 | 182.68 ± 4.91 | 1.49 ± 0.06 | 1.35 ± 0.09 | 1.42 ± 0.02 | 1.43 ± 0.08 | 157.85 ± 2.08 | 20.67±0.59 | 81.02 ± 17.98 ng/gm of tissue | 40.42 ± 8.73 | 46.0 ± 7.91 Pg/ml of tissue | 20.04 ± 5.33 | moderate inhibition (p<0.05)
